Laboratory results taken from publication PMC10853020 (Journal of medicinal chemistry, 2023).
pKi: −log10 of the molar value.

Legend:
[1] = biological target: T1, h5-HT2CR (Homo sapiens, UniProt P28335); assay: 5-HT-induced Cai^2+ release in h5-HT2CR-CHO cells; assay type: cell-based; details: 1 nM
T1 sequence (P28335 33-458): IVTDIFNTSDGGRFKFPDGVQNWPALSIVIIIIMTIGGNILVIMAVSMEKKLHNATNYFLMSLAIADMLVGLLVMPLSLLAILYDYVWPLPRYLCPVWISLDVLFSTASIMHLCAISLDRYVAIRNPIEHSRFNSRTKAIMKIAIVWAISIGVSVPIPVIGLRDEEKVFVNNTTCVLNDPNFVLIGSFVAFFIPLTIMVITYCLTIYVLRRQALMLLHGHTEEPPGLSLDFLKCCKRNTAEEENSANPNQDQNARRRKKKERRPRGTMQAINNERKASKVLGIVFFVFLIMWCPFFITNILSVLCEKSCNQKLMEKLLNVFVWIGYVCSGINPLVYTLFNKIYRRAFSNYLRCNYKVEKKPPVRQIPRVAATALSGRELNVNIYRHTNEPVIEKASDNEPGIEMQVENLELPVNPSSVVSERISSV

[2] = biological target: HERG (Homo sapiens, UniProt Q12809); assay: NIMH PDSP radioligand binding displacement
Chain of HERG (Q12809 whole entry): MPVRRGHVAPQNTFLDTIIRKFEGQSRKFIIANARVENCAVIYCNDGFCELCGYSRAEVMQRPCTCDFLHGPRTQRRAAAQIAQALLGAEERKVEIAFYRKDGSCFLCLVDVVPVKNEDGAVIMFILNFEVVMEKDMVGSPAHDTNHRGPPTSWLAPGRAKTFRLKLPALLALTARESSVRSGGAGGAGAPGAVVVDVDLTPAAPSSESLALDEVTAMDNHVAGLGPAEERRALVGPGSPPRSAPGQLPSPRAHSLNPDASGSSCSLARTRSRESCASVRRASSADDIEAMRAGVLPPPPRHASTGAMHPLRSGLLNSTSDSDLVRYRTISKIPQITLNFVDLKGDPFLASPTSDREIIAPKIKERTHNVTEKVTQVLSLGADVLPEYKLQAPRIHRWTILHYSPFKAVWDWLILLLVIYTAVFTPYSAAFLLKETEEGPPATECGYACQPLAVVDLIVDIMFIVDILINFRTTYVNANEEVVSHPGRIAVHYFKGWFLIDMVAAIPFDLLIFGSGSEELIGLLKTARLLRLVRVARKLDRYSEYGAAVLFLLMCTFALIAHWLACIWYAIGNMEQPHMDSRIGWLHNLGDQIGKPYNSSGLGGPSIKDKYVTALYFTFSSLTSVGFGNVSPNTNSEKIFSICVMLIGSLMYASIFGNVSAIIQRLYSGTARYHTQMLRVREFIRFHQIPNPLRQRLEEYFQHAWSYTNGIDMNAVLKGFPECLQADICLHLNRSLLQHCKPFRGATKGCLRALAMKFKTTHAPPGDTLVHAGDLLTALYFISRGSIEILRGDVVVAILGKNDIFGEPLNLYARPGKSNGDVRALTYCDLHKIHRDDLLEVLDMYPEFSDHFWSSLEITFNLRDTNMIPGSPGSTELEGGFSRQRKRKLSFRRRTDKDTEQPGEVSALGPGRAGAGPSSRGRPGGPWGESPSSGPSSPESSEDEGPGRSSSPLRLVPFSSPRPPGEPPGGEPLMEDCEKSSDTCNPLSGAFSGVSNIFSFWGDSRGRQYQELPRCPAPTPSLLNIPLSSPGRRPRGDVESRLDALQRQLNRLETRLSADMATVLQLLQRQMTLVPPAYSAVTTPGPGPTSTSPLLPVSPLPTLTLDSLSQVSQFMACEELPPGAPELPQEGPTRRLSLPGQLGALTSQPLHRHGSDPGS

[3] = biological target: T2, σ2 receptor (Rattus norvegicus, UniProt Q5U3Y7); assay: NIMH PDSP radioligand binding displacement
T2 sequence (Q5U3Y7 1-176): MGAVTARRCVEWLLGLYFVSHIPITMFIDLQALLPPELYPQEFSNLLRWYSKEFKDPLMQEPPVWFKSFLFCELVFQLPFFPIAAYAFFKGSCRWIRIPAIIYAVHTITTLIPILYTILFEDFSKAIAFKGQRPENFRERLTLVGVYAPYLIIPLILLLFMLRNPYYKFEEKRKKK

[4] = tested on: male Sprague–Dawley rats; assay: Novelty-induced; assay type: in vivo, rat; details: 30 mg/kg ip, 30 min prior; vs vehicle; p < 0.0001

SMILES | 5-HT2CR PAM activity [1] | also measured
CCCCCCCC/C=C\CCCCCCCC(=O)NCCCO [Compound 8, N-(3-Hydroxypropyl)oleamide] | potentiated 5-HT-evoked Cai^2+ release | –
CCCCCCCC/C=C\CCCCCCCC(=O)NC[C@H](O)CO [Compound 10, (S)-N-(2,3-Dihydroxypropyl)oleamide] | inactive | –
CCCCCCCC/C=C\CCCCCCCC(=O)NC(CO)CO [Compound 11, N-(1,3-Dihydroxypropan-2-yl)oleamide] | – | displacement of binding to the hERG potassium channel [2]: did not displace binding
CCCCCCCC/C=C\CCCCCCCC(=O)NC(CO)(CO)CO [Compound 13, N-(1,3-Dihydroxy-2-(hydroxymethyl)propan-2-yl)oleamide] | – | pKi [3]: 5.44; total ambulations over a 90 min session [4]: significantly reduced total ambulations vs vehicle
CCCCCCCC/C=C\CCCCCCCC(=O)NCC(OCC)OCC [Compound 14, N-(2,2-Diethoxyethyl)oleamide] | did not evoke PAM activity | –
